PubChem BioAssay (NCI)
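Where inhibition never reached the appropriate level, the endpoint shown equals the highest concentration tested. Otherwise, values were interpolated linearly from a five-concentration, 48-hour dose response in 96-well plates. At the TGI there is no net growth.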

Assays:
Test in all cases: growth of human tumour cells (NCI), 48 h
786-0 renal = system: 786-0 renal
A498 renal = system: A498 renal
A549 NSCLC = system: A549 NSCLC
ACHN renal = system: ACHN renal
BT-549 breast = system: BT-549 breast
CAKI-1 renal = system: CAKI-1 renal
CCRF-CEM leukemia = system: CCRF-CEM leukemia
COLO 205 colon = system: COLO 205 colon
DU-145 prostate = system: DU-145 prostate
EKVX NSCLC = system: EKVX NSCLC
HCC-2998 colon = system: HCC-2998 colon
HCT-116 colon = system: HCT-116 colon
HCT-15 colon = system: HCT-15 colon
HL-60(TB) leukemia = system: HL-60(TB) leukemia
HOP-62 NSCLC = system: HOP-62 NSCLC
HOP-92 NSCLC = system: HOP-92 NSCLC
HS 578T breast = system: HS 578T breast
HT29 colon = system: HT29 colon
IGROV1 ovarian = system: IGROV1 ovarian
K-562 leukemia = system: K-562 leukemia
KM12 colon = system: KM12 colon
LOX IMVI melanoma = system: LOX IMVI melanoma
M14 melanoma = system: M14 melanoma
MALME-3M melanoma = system: MALME-3M melanoma
MCF7 breast = system: MCF7 breast
MDA-MB-231 breast = system: MDA-MB-231 breast
MDA-MB-435 = system: MDA-MB-435
MDA-N = system: MDA-N
MOLT-4 leukemia = system: MOLT-4 leukemia
NCI-H226 lung = system: NCI-H226 lung
NCI-H23 lung = system: NCI-H23 lung
NCI-H460 lung = system: NCI-H460 lung
NCI-H522 lung = system: NCI-H522 lung
NCI/ADR-RES ovarian = system: NCI/ADR-RES ovarian
OVCAR-3 ovarian = system: OVCAR-3 ovarian
OVCAR-4 ovarian = system: OVCAR-4 ovarian
OVCAR-5 ovarian = system: OVCAR-5 ovarian
OVCAR-8 ovarian = system: OVCAR-8 ovarian
PC-3 prostate = system: PC-3 prostate
RPMI-8226 leukemia = system: RPMI-8226 leukemia
RXF 393 renal = system: RXF 393 renal
SF-268 CNS = system: SF-268 CNS
SF-295 CNS = system: SF-295 CNS
SF-539 CNS = system: SF-539 CNS
SK-MEL-2 melanoma = system: SK-MEL-2 melanoma
SK-MEL-28 melanoma = system: SK-MEL-28 melanoma
SK-MEL-5 melanoma = system: SK-MEL-5 melanoma
SK-OV-3 ovarian = system: SK-OV-3 ovarian
SN12C renal = system: SN12C renal
SNB-19 CNS = system: SNB-19 CNS
SNB-75 CNS = system: SNB-75 CNS
SR leukemia = system: SR leukemia
SW-620 colon = system: SW-620 colon
T-47D breast = system: T-47D breast
TK-10 renal = system: TK-10 renal
U251 CNS = system: U251 CNS
UACC-257 melanoma = system: UACC-257 melanoma
UACC-62 melanoma = system: UACC-62 melanoma
UO-31 renal = system: UO-31 renal

Work on `O=C(O)C(Sc1ccc(Cl)cc1)Sc1ccc(Cl)cc1` yielded a TGI (786-0 renal) greater than 100 µM, a TGI (A498 renal) of 95.5 µM and a TGI (A549 NSCLC) greater than 100 µM. It also gave a TGI (ACHN renal) greater than 100 µM, a TGI (BT-549 breast) greater than 100 µM and a TGI (CAKI-1 renal) greater than 100 µM. The TGI (CCRF-CEM leukemia) was greater than 100 µM, the TGI (COLO 205 colon) was 59 µM and the TGI (DU-145 prostate) was greater than 100 µM. For the same compound, the TGI (EKVX NSCLC) was greater than 100 µM, the TGI (HCC-2998 colon) was 69.1 µM and the TGI (HCT-116 colon) was greater than 100 µM. For the same compound, the TGI (HCT-15 colon) was greater than 100 µM, the TGI (HL-60(TB) leukemia) was greater than 100 µM and the TGI (HOP-62 NSCLC) was greater than 100 µM. The TGI (HOP-92 NSCLC) was 68.2 µM, the TGI (HS 578T breast) was greater than 100 µM and the TGI (HT29 colon) was greater than 100 µM. It also gave a TGI (IGROV1 ovarian) greater than 100 µM, a TGI (K-562 leukemia) greater than 100 µM and a TGI (KM12 colon) greater than 100 µM. It also gave a TGI (LOX IMVI melanoma) greater than 100 µM, a TGI (M14 melanoma) greater than 100 µM and a TGI (MALME-3M melanoma) greater than 100 µM. It also gave a TGI (MCF7 breast) greater than 100 µM, a TGI (MDA-MB-231 breast) greater than 100 µM and a TGI (MDA-MB-435) greater than 100 µM. The TGI (MDA-N) was greater than 100 µM, the TGI (MOLT-4 leukemia) was greater than 100 µM and the TGI (NCI-H226 lung) was greater than 100 µM. The TGI (NCI-H23 lung) was greater than 100 µM, the TGI (NCI-H460 lung) was greater than 100 µM and the TGI (NCI-H522 lung) was greater than 100 µM. The TGI (NCI/ADR-RES ovarian) was greater than 100 µM, the TGI (OVCAR-3 ovarian) was 82.6 µM and the TGI (OVCAR-4 ovarian) was greater than 100 µM. The TGI (OVCAR-5 ovarian) was greater than 100 µM, the TGI (OVCAR-8 ovarian) was greater than 100 µM and the TGI (PC-3 prostate) was greater than 100 µM. For the same compound, the TGI (RPMI-8226 leukemia) was greater than 100 µM, the TGI (RXF 393 renal) was greater than 100 µM and the TGI (SF-268 CNS) was greater than 100 µM. For the same compound, the TGI (SF-295 CNS) was greater than 100 µM, the TGI (SF-539 CNS) was greater than 100 µM and the TGI (SK-MEL-2 melanoma) was 69.1 µM. It also gave a TGI (SK-MEL-28 melanoma) greater than 100 µM, a TGI (SK-MEL-5 melanoma) greater than 100 µM and a TGI (SK-OV-3 ovarian) greater than 100 µM. It also gave a TGI (SN12C renal) greater than 100 µM, a TGI (SNB-19 CNS) greater than 100 µM and a TGI (SNB-75 CNS) greater than 100 µM. The TGI (SR leukemia) was greater than 100 µM, the TGI (SW-620 colon) was greater than 100 µM and the TGI (T-47D breast) was greater than 100 µM. For the same compound, the TGI (TK-10 renal) was greater than 100 µM, the TGI (U251 CNS) was greater than 100 µM and the TGI (UACC-257 melanoma) was greater than 100 µM. It also gave a TGI (UACC-62 melanoma) of 72.1 µM and a TGI (UO-31 renal) greater than 100 µM.

Work on `N#Cc1nc(COCCOCc2ccccc2)oc1N` yielded a TGI (786-0 renal) greater than 100 µM, a TGI (A498 renal) greater than 100 µM and a TGI (A549 NSCLC) greater than 100 µM. The TGI (ACHN renal) was greater than 100 µM, the TGI (BT-549 breast) was greater than 100 µM and the TGI (CAKI-1 renal) was greater than 100 µM. For the same compound, the TGI (CCRF-CEM leukemia) was greater than 100 µM, the TGI (COLO 205 colon) was greater than 100 µM and the TGI (DU-145 prostate) was greater than 100 µM. It also gave a TGI (EKVX NSCLC) greater than 100 µM, a TGI (HCC-2998 colon) greater than 100 µM and a TGI (HCT-116 colon) greater than 100 µM. For the same compound, the TGI (HCT-15 colon) was greater than 100 µM, the TGI (HL-60(TB) leukemia) was greater than 100 µM and the TGI (HOP-62 NSCLC) was greater than 100 µM. The TGI (HOP-92 NSCLC) was greater than 100 µM, the TGI (HS 578T breast) was greater than 100 µM and the TGI (HT29 colon) was greater than 100 µM. For the same compound, the TGI (IGROV1 ovarian) was greater than 100 µM, the TGI (K-562 leukemia) was greater than 100 µM and the TGI (KM12 colon) was greater than 100 µM. For the same compound, the TGI (LOX IMVI melanoma) was greater than 100 µM, the TGI (M14 melanoma) was greater than 100 µM and the TGI (MALME-3M melanoma) was greater than 100 µM. The TGI (MCF7 breast) was greater than 100 µM, the TGI (MDA-MB-231 breast) was greater than 100 µM and the TGI (MDA-MB-435) was greater than 100 µM. It also gave a TGI (MDA-N) greater than 100 µM, a TGI (MOLT-4 leukemia) greater than 100 µM and a TGI (NCI-H226 lung) greater than 100 µM. The TGI (NCI-H23 lung) was greater than 100 µM, the TGI (NCI-H460 lung) was greater than 100 µM and the TGI (NCI-H522 lung) was greater than 100 µM. For the same compound, the TGI (NCI/ADR-RES ovarian) was greater than 100 µM, the TGI (OVCAR-3 ovarian) was greater than 100 µM and the TGI (OVCAR-4 ovarian) was greater than 100 µM. For the same compound, the TGI (OVCAR-5 ovarian) was greater than 100 µM, the TGI (OVCAR-8 ovarian) was greater than 100 µM and the TGI (PC-3 prostate) was greater than 100 µM. It also gave a TGI (RPMI-8226 leukemia) greater than 100 µM, a TGI (RXF 393 renal) greater than 100 µM and a TGI (SF-268 CNS) greater than 100 µM. It also gave a TGI (SF-295 CNS) greater than 100 µM, a TGI (SF-539 CNS) greater than 100 µM and a TGI (SK-MEL-2 melanoma) greater than 100 µM. The TGI (SK-MEL-28 melanoma) was greater than 100 µM, the TGI (SK-MEL-5 melanoma) was greater than 100 µM and the TGI (SK-OV-3 ovarian) was greater than 100 µM. The TGI (SN12C renal) was greater than 100 µM, the TGI (SNB-19 CNS) was greater than 100 µM and the TGI (SNB-75 CNS) was greater than 100 µM. It also gave a TGI (SR leukemia) greater than 100 µM, a TGI (SW-620 colon) greater than 100 µM and a TGI (T-47D breast) greater than 100 µM. It also gave a TGI (TK-10 renal) greater than 100 µM, a TGI (U251 CNS) greater than 100 µM and a TGI (UACC-257 melanoma) greater than 100 µM. For the same compound, the TGI (UACC-62 melanoma) was greater than 100 µM and the TGI (UO-31 renal) was greater than 100 µM.
